# Patent US20100029710A1, “COMPOUNDS HAVING BOTH ANGIOTENSIN II RECEPTOR ANTAGONISM AND PPARy ACTIVATING ACTIVITIES” (Pfizer Products Inc., priority 2006, published 2010)
# pEC50, pIC50: −log10 of the molar value.
# Assays:
# [1] = molecular target: T1, Human recombinant AT1 receptor (Homo sapiens, UniProt P30556); assay: AT1 receptor radioligand binding (flashplate); conditions: 125I Sar1,Ile8-Angiotensin II radioligand
# T1 construct: purchased
# T1 sequence (P30556 1-359): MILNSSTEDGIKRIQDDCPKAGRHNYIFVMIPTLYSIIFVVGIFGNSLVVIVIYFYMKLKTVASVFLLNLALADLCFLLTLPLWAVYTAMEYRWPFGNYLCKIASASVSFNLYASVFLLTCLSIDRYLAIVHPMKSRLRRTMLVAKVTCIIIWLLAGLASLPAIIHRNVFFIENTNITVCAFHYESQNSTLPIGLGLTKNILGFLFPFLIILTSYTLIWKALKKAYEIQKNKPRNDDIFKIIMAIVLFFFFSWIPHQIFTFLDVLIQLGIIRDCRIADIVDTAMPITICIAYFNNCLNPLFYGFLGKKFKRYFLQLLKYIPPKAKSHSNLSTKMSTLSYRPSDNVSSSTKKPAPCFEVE
# Experimental: Angiotensin II receptor antagonist activity may be determined using commercially available flashplates coated with the AT1 or AT2 receptor which provide a rapid and high throughput means to evaluate compounds compared to traditional filtration based assays (Regina M. Van Der Hee et al., Journal of Biomolecular Screening 10(2); 2005; 118-126).
# AT1 receptor affinity was determined in a radioligand binding format using commercially available flashplate technology. Human recombinant AT1 receptor were coated on the wells of a 96 well flashplate and test compounds were diluted and added to wells at a final concentration range of 50 μM to 1 μM. Total binding was determined in the absence of compound and non-specific binding in the presence of 10 μM cold Angiotensin II. ^125I labeled Sar^1, Ile^8-Angiotensin II was added to all wells at Kd concentration and left for 2 hours at room temperature to equilibrate. Plates were read on a TopCount (Perkin Elmer) and concentration-response curves constructed using commercial curve fitting software. The Ki was determined via interpolation and the use of the Cheng-Prussof equation.
# [2] = molecular target: T2, human PPARγ LBD bound to Gal4 DBD (Homo sapiens, UniProt P37231); assay: PPARγ transfection luciferase reporter assay in HepG2 cells; format: cell-based; conditions: for Emax: HepG2, 24 h, compared to full agonist response (standard TZD full agonist), read-out: PPARγ % activation; for pEC50: HepG2, 24 hours exposure
# T2 construct: expressed in transfected cells; host or cells: HepG2
# T2 sequence (P37231 238-503 limits assumed): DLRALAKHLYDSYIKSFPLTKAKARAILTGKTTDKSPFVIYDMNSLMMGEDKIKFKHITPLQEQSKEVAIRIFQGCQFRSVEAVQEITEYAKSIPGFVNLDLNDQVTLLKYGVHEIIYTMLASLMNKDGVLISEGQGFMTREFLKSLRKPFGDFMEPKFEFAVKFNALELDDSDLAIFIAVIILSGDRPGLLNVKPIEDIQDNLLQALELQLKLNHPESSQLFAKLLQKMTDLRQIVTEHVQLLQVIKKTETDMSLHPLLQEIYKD
# Experimental: PPARγ agonist activity may be determined by a cell line transiently transfected with PPARγ bound to a DNA binding domain that controls luciferase expression. The degree of receptor agonism is measured by the amount of luciferase activity after compound treatment. The ratio of treated cells over vehicle control cells provides a measure of fold activation and allows an EC50 (shown in tables I and II as […] EC50) and % activation to be calculated
# A human hepatocellular carcinoma cell line (HepG2) was subcultured into dishes and transiently transfected with DNA to allow expression of human PPARγ LBD bound to Gal4 DBD. Luciferase reporter gene and β-galactosidase control genes were co-transfected to enable activity to be measured. After 24 hours, cells were exposed to compounds in the concentration range of 0.1 nM-100 μM and left for a further 24 hours. Luciferase activity is determined by luminometry and PPARγ activation is expressed as a ratio of luciferase activity to β-galactosidase activity to account for transfection efficiency. Potency is described by an EC50 defined as the concentration of compound producing receptor activation equivalent to 50% of the maximum for that compound (shown in Table I as transfection EC50). The maximum fold activation is a measure of efficacy and is expressed as a percentage of a reference full agonist run in the same assay. Efficacy is described by % activation of receptor relative to a standard thiazolidinedione (TZD) full agonist.
pIC50 [1],Emax [2] [%],pEC50 [2],Compound
8.51,23,7.00,"CCc1nc2c(C)cc(CC(O)C(C)C)nc2n1[C@H]1CCc2cc(-c3ccccc3-c3nnn[nH]3)ccc21 (stereo partly drawn) [Example 21, 1-(3-((1S)-5-(2-(1H-tetrazol-5-yl)phenyl)-2,3-dihydro-1H-inden-1-yl)-2-ethyl-7-methyl-3H-imidazo[4,5-b]pyridin-5-yl)-3-methylbutane-2-ol]"
8.66,28,6.34,"CCc1nc2c(C)cc(C3OC3(C)C)nc2n1[C@H]1CCc2cc(-c3ccccc3-c3nnn[nH]3)ccc21 (stereo partly drawn) [Example 22, 3-((1S)-5-(2-(1H-tetrazol-5-yl)phenyl)-2,3-dihydro-1H-inden-1-yl)-5-(3,3-dimethyloxiran-2-yl)-2-ethyl-7-methyl-3H-imidazo[4,5-b]pyridine]"
8.32,26,6.66,"CCc1nc2c(C)cc(/C=C/COC)nc2n1[C@H]1CCc2cc(-c3ccccc3-c3nnn[nH]3)ccc21 [Example 23, 3-((1S)-5-(2-(1H-tetrazol-5-yl)phenyl)-2,3-dihydro-1H-inden-1-yl)-2-ethyl-5-((E)-3-methoxyprop-1-enyl)-7-methyl-3H-imidazo[4,5-b]pyridine]"
8.68,28,6.37,"CCc1nc2c(C)cc(CCc3cccnc3)nc2n1[C@H]1CCc2cc(-c3ccccc3-c3nnn[nH]3)ccc21 [Example 24, 3-((1S)-5-(2-(1H-tetrazol-5-yl)phenyl)-2,3-dihydro-1H-inden-1-yl)-2-ethyl-7-methyl-5-(2-(pyridin-3-yl)ethyl)-3H-imidazo[4,5-b]pyridine]"
8.62,26,6.74,"CCc1nc2c(C)cc(CCc3ccccn3)nc2n1[C@H]1CCc2cc(-c3ccccc3-c3nnn[nH]3)ccc21 [Example 25, 3-((1S)-5-(2-(1H-tetrazol-5-yl)phenyl)-2,3-dihydro-1H-inden-1-yl)-2-ethyl-7-methyl-5-(2-(pyridin-2-yl)ethyl)-3H-imidazo[4,5-b]pyridine]"
8.00,26,6.42,"CCc1nc2c(C)cc(CCc3ccccc3F)nc2n1[C@H]1CCc2cc(-c3ccccc3-c3nnn[nH]3)ccc21 [Example 26, 3-((1S)-5-(2-(1H-tetrazol-5-yl)phenyl)-2,3-dihydro-1H-inden-1-yl)-5-(2-fluorophenethyl)-2-ethyl-7-methyl-3H-imidazo[4,5-b]pyridine]"
8.70,21,6.31,"CCc1nc2c(C)cc(CCc3ccc(OC)cc3)nc2n1[C@H]1CCc2cc(-c3ccccc3-c3nnn[nH]3)ccc21 [Example 27, 3-((1S)-5-(2-(1H-tetrazol-5-yl)phenyl)-2,3-dihydro-1H-inden-1-yl)-5-(4-methoxyphenethyl)-2-ethyl-7-methyl-3H-imidazo[4,5-b]pyridine]"
8.66,15,6.48,"CCc1nc2c(C)cc(CCc3ccccc3C)nc2n1[C@H]1CCc2cc(-c3ccccc3-c3nnn[nH]3)ccc21 [Example 28, ((1S)-5-(2-(1H-tetrazol-5-yl)phenyl)-2,3-dihydro-1H-inden-1-yl)-5-(2-methylphenethyl)-2-ethyl-7-methyl-3H-imidazo[4,5-b]pyridine]"
8.54,31,6.71,"CCc1nc2c(C)cc(CCc3cccc(OC)c3)nc2n1[C@H]1CCc2cc(-c3ccccc3-c3nnn[nH]3)ccc21 [Example 29, 3-((1S)-5-(2-(1H-tetrazol-5-yl)phenyl)-2,3-dihydro-1H-inden-1-yl)-5-(3-methoxyphenethyl)-2-ethyl-7-methyl-3H-imidazo[4,5-b]pyridine]"
8.22,28,6.80,"CCc1nc2c(C)cc(CCc3ccccc3)nc2n1[C@H]1CCc2cc(-c3ccccc3-c3nnn[nH]3)ccc21 [Example 30, 3-((1S)-5-(2-(1H-tetrazol-5-yl)phenyl)-2,3-dihydro-1H-inden-1-yl)-2-ethyl-7-methyl-5-phenethyl-3H-imidazo[4,5-b]pyridine]"
